What was measured:
Format in all cases: functional
A498 = assay: Anticancer activity against Homo sapiens (human) A498 cells after 48 hr by SRB assay; conditions: A498, 48 h
NCI/ADR-RES = assay: Anticancer activity against Homo sapiens (human) NCI/ADR-RES cells after 48 hr by SRB assay
786-0 = assay: Anticancer activity against Homo sapiens (human) 786-0 cells after 48 hr by SRB assay; conditions: 786-0, 48 h
OVCAR-8 = assay: Anticancer activity against Homo sapiens (human) OVCAR8 cells after 48 hr by SRB assay; conditions: OVCAR-8, 48 h
OVCAR-4 = assay: Anticancer activity against Homo sapiens (human) OVCAR4 cells after 48 hr by SRB assay; conditions: OVCAR-4, 48 h
IGROV-1 = assay: Anticancer activity against Homo sapiens (human) IGROV1 cells after 48 hr by SRB assay; conditions: IGROV-1, 48 h
CAKI-1 = assay: Anticancer activity against Homo sapiens (human) CAKI-1 cells after 48 hr by SRB assay; conditions: CAKI-1, 48 h
K562 = assay: Anticancer activity against Homo sapiens (human) K562 cells after 48 hr by SRB assay; conditions: K562, 48 h
UACC-257 = assay: Anticancer activity against Homo sapiens (human) UACC257 cells after 48 hr by SRB assay; conditions: UACC-257, 48 h
Malme-3M = assay: Anticancer activity against Homo sapiens (human) MALME-3M cells after 48 hr by SRB assay
OVCAR-3 = assay: Anticancer activity against Homo sapiens (human) OVCAR3 cells after 48 hr by SRB assay; conditions: OVCAR-3, 48 h
EKVX = assay: Anticancer activity against Homo sapiens (human) EKVX cells after 48 hr by SRB assay
SN12C = assay: Anticancer activity against Homo sapiens (human) SN12C cells after 48 hr by SRB assay
TK-10 = assay: Anticancer activity against Homo sapiens (human) TK10 cells after 48 hr by SRB assay; conditions: TK-10, 48 h
SF-295 = assay: Anticancer activity against Homo sapiens (human) SF295 cells after 48 hr by SRB assay; conditions: SF-295, 48 h
HT-29 = assay: Anticancer activity against Homo sapiens (human) HT-29 cells after 48 hr by SRB assay; conditions: HT-29, 48 h
SF-268 = assay: Anticancer activity against Homo sapiens (human) SF268 cells after 48 hr by SRB assay; conditions: SF-268, 48 h
SF-539 = assay: Anticancer activity against Homo sapiens (human) SF539 cells after 48 hr by SRB assay; conditions: SF-539, 48 h
BT-549 = assay: Anticancer activity against Homo sapiens (human) BT549 cells after 48 hr by SRB assay; conditions: BT-549, 48 h
SW-620 = assay: Anticancer activity against Homo sapiens (human) SW620 cells after 48 hr by SRB assay; conditions: SW-620, 48 h
DU-145 = assay: Anticancer activity against Homo sapiens (human) DU145 cells after 48 hr by SRB assay; conditions: DU-145, 48 h
SNB-19 = assay: Anticancer activity against Homo sapiens (human) SNB19 cells after 48 hr by SRB assay; conditions: SNB-19, 48 h
NCI-H322M = assay: Anticancer activity against Homo sapiens (human) NCI-H322M cells after 48 hr by SRB assay
SK-MEL-2 = assay: Anticancer activity against Homo sapiens (human) SK-MEL-2 cells after 48 hr by SRB assay; conditions: SK-MEL-2, 48 h
NCI-H23 = assay: Anticancer activity against Homo sapiens (human) NCI-H23 cells after 48 hr by SRB assay; conditions: NCI-H23, 48 h
KM12 = assay: Anticancer activity against Homo sapiens (human) KM12 cells after 48 hr by SRB assay; conditions: KM12, 48 h
SK-OV-3 = assay: Anticancer activity against Homo sapiens (human) SKOV3 cells after 48 hr by SRB assay; conditions: SK-OV-3, 48 h
U-251 = assay: Anticancer activity against Homo sapiens (human) U251 cells after 48 hr by SRB assay; conditions: U-251, 48 h
SK-MEL-5 = assay: Anticancer activity against Homo sapiens (human) SK-MEL-5 cells after 48 hr by SRB assay; conditions: SK-MEL-5, 48 h
UO-31 = assay: Anticancer activity against Homo sapiens (human) UO31 cells after 48 hr by SRB assay; conditions: UO-31, 48 h
MDA-MB-231 = assay: Anticancer activity against Homo sapiens (human) MDA-MB-231/ATCC cells after 48 hr by SRB assay; conditions: MDA-MB-231, 48 h
[1] = read-out: LC50 (the source's name)

Cc1nc(SCC(=O)Nc2nc(-c3ccc(Cl)cc3)cs2)n(Nc2ccccc2)c1C
GI50 (A498): 2.24 µM
LC50 (A498): 35.8 µM
TGI (A498): 10.5 µM
GI50 (NCI/ADR-RES): 2.6 µM
LC50 (NCI/ADR-RES): 69.9 µM
TGI (NCI/ADR-RES): 7.18 µM
GI50 (786-0): 3.6 µM
LC50 (lethal concentration 50) (786-0): 38.9 µM
TGI (786-0): 13.7 µM
GI50 (OVCAR-8): 2.71 µM
TGI (OVCAR-8): 7.73 µM
CC50 (OVCAR-8; [1]): 38.9 µM
GI50 (OVCAR-4): 4.6 µM
LC50 (concentration killing 50% of starting cells) (OVCAR-4): > 100 µM
TGI (OVCAR-4): 22.1 µM
GI50 (IGROV-1): 3.36 µM
LC50 (concentration killing 50% of cells) (IGROV-1): > 100 µM
TGI (IGROV-1): 20.6 µM
GI50 (CAKI-1): 3.93 µM
LC50 (concentration killing 50% of cells) (CAKI-1): > 100 µM
TGI (CAKI-1): 22.6 µM
GI50 (K562): 0.12 µM
TGI (K562): > 100 µM
CC50 (K562; [1]): > 100 µM
GI50 (UACC-257): 3.07 µM
LC50 (UACC-257): > 100 µM
TGI (UACC-257): 17 µM
GI50 (Malme-3M): 10.8 µM
TGI (Malme-3M): 37.6 µM
CC50 (Malme-3M; [1]): > 100 µM
GI50 (OVCAR-3): 3 µM
LC50 (50% lethal concentration) (OVCAR-3): 36.2 µM
TGI (OVCAR-3): 12.1 µM
GI50 (EKVX): 1.84 µM
TGI (EKVX): 12.2 µM
CC50 (EKVX; [1]): 94.1 µM
GI50 (SN12C): 2.38 µM
LC50 (concentration killing 50% of cells) (SN12C): 35.8 µM
TGI (SN12C): 10.1 µM
GI50 (TK-10): 3.65 µM
LC50 (50% lethal concentration) (TK-10): 40.7 µM
TGI (TK-10): 13.8 µM
GI50 (SF-295): 2.29 µM
LC50 (SF-295): > 100 µM
TGI (SF-295): 16.5 µM
GI50 (HT-29): 3.78 µM
LC50 (HT-29): 49.5 µM
TGI (HT-29): 15.4 µM
GI50 (SF-268): 4.8 µM
LC50 (SF-268): 58.8 µM
TGI (SF-268): 20.1 µM
GI50 (SF-539): 1.9 µM
LC50 (concentration killing 50% of cells) (SF-539): 9.64 µM
TGI (SF-539): 4.27 µM
GI50 (BT-549): 7.02 µM
LC50 (BT-549): 51.8 µM
TGI (BT-549): 20.9 µM
GI50 (SW-620): 5.5 µM
LC50 (concentration killing 50% of cells) (SW-620): 74.6 µM
TGI (SW-620): 22.9 µM
GI50 (DU-145): 5.64 µM
LC50 (concentration killing 50% of cells) (DU-145): 45.4 µM
TGI (DU-145): 18.7 µM
GI50 (SNB-19): 9.41 µM
LC50 (SNB-19): 61.7 µM
TGI (SNB-19): 24.6 µM
GI50 (NCI-H322M): 4.17 µM
TGI (NCI-H322M): 22.9 µM
CC50 (NCI-H322M; [1]): > 100 µM
GI50 (SK-MEL-2): 10.1 µM
LC50 (concentration killing 50% of cells) (SK-MEL-2): 75.5 µM
TGI (SK-MEL-2): 27.6 µM
GI50 (NCI-H23): 1.85 µM
TGI (NCI-H23): 6.02 µM
CC50 (NCI-H23; [1]): 26.3 µM
GI50 (KM12): 2.95 µM
LC50 (concentration killing 50% of cells) (KM12): 41.4 µM
TGI (KM12): 14 µM
GI50 (SK-OV-3): 5.91 µM
LC50 (50% lethal concentration) (SK-OV-3): 47.4 µM
TGI (SK-OV-3): 19.8 µM
GI50 (U-251): 3.13 µM
LC50 (lethal concentration, 50% net cell kill) (U-251): 41.4 µM
TGI (U-251): 13 µM
GI50 (SK-MEL-5): 2.24 µM
LC50 (concentration killing 50% of cells) (SK-MEL-5): 25.8 µM
TGI (SK-MEL-5): 6.31 µM
GI50 (UO-31): 3.59 µM
TGI (UO-31): 37.7 µM
CC50 (UO-31; [1]): > 100 µM
GI50 (MDA-MB-231): 3.01 µM
TGI (MDA-MB-231): 15.2 µM
CC50 (MDA-MB-231; [1]): 57.8 µM

— ChEMBL document CHEMBL3044631, “Synthesis of 2-[4,5-dimethyl-1-(phenylamino)-1H-imidazol-2-ylthio]-N-(thiazole-2-yl)acetamide derivatives and their anticancer activities” (2013)
